# How the values were obtained:
# [1] = ORP (oxidation-reduction potential) of mixtures versus sodium hypochlorite solution of the same concentration; type: physicochemical; conditions: for ORP: Only solution
# E. coli group = experiment: Bactericidal effect on green onions, E. coli group count; type: cell-based; conditions: green onion, immersion 30 minutes
# [2] = tested on: overall viable bacteria count; experiment: Bactericidal effect on green onions, overall viable bacteria count; type: cell-based; conditions: green onion, immersion 30 minutes
smiles,measurement,setting,value
OCl [sodium hypochlorite],ORP,[1]; 200 ppm,554 mV
same,ORP,[1]; 1000 ppm,560 mV
same,ORP,[1]; Undiluted solution (6%),560 mV
same,ORP (oxidation-reduction potential) / oxidizing power upon dilution,[1]; diluted,no change
same,E. coli group count,"E. coli group; 200 ppm, D + 3",5.66 log CFU
same,E. coli group count,"E. coli group; 1000 ppm, D + 2",2.64 log CFU
same,E. coli group count,"E. coli group; 1000 ppm, D + 3",4.73 log CFU
same,Overall viable bacteria count,"[2]; 200 ppm, D + 0",5.00 log CFU
same,Overall viable bacteria count,"[2]; 200 ppm, D + 1",5.72 log CFU
same,Overall viable bacteria count,"[2]; 1000 ppm, D + 0",3.57 log CFU
same,Overall viable bacteria count,"[2]; 1000 ppm, D + 1",5.61 log CFU

# — patent US20250033966A1, “MANUFACTURING METHOD FOR OBTAINING NOVEL CHLORINE OXIDE COMPOSITION FROM DEGRADED HYPOCHLORITE” (HONBUSANKEI CO., LTD., priority 2018, published 2025)
